Measurements taken from article PMC6539525, “Design, Synthesis, and Mechanism of Dihydroartemisinin–Coumarin Hybrids as Potential Anti-Neuroinflammatory Agents” (Molecules, 2019).
Like-named read-outs stand apart in the source and are kept apart here.

Tests used:
A549 cells = assay: MTT cytotoxicity in A549 cells; format: cell-based; settings: Homo sapiens
Procedure: (§1) As the anti-neuroinflammatory agents for cancer patients, all newly synthesized compounds were evaluated in vitro for antitumor activity against human breast cancer cell line MDA-MB-231, colorectal cancer cells HT-29 and HCT-116, and lung cancer cell line A549 by using the standard MTT method, respectively. Doxorubicin (DOX) and DHA were used as the reference standard. Additionally, owing to the rapid proliferation, the tumor cells actually was always in hypoxia condition. Therefore, the in vitro cytotoxicity was evaluated in two different conditions (hypoxia and normoxia).
(§2) After recovery, the cells were cultured in 96-well plates for 24 h at 37 °C in a humidified atmosphere with 95% air and 5% CO2. After treated with different tested compounds, the hypoxia groups were placed in a sealed hypoxia incubator chamber (Stemcell Technologies, Inc., Vancouver, BC, Canada) filled with 5% CO2 and 95% N2 for 24 h, and then transferred to the incubator chamber filled with air for 72 h. On the contrary, the normoxia groups were cultured under air condition for 96h.
(§3) Cancer cells HT-29 (Human Colorectal Adenocarcinoma cell line), MDA-MB-231 (Human Breast Cancer cell line), HCT-116 (Human Colorectal Carcinoma cell line), and A549 (Human Lung Adenocarcinomic cell line) were from ATCC.
(§4) When the adherent cells reached 80% confluence, the culture medium was discarded. The cells were digested by trypsin and collected after centrifugation. The fresh culture medium was gently blown into it to form single-cell suspension. Cell suspension will be diluted to 1.5–3 × 10^4 cells/mL. Each hole of 96-well plates was added 100 μL cell suspension and incubated for 24 h (5% CO2; 37 °C). Then the holes were added different concentrations of tested compounds. The early screening concentration is set to 100 μM, 50 μM, 25 μM, 12.5 μM, and 6.25 μM. Three replicates were made for each concentration of the tested compounds. After the cells were grown for 96h, 20 μL MTT (5 mg/mL) was added to each well and incubated for 4 h. The medium was discarded and each well was added 100 μL DMSO to dissolve the formazan blue. Absorbance was measured at 570 nm with a microplate reader (Synergy-HT, BioTek Instruments, Winooski, VT, USA).
(§5) Hypoxia condition: The cells were treated with different concentration of tested compounds, placed in hypoxia chamber (Catalog Number 27310, Stemcell Technologies, Inc., Vancouver, BC, Canada), and incubated for 24 h ([…]; 37 °C). Then the cells were placed in normoxia condition (5% CO2; 37 °C) and incubated for 72 h.

HT-29 cells = assay: MTT cytotoxicity in HT-29 cells; format: cell-based, Human; settings: Homo sapiens, MTT
Procedure: as §1
as §2, with “On the contrary, the normoxia groups were cultured under air condition for 96h.” left out
as §3
as §4, with “After the cells were grown for 96h, 20 μL MTT (5 mg/mL) was added to each well and incubated for 4 h.” left out, “USA). […]” for “USA).”

[1] = NO capture analysis with sodium nitroprusside (Griess); settings: 0.01-10 μM compound, 0.5 mM SNP solution, 1 h, room temperature
Procedure: Sodium nitroprusside (SNP) is a NO donor. In this experiment, the reason of the DCH reducing NO level was preliminary explored. […] That means the main reason of the NO level reduction is due to species-specific effect.
SNP was dissolved in PBS to prepare the 100 mM stock solution. In this experiment, SNP solution of […] was added to 975 μL PBS solution which included different concentration of tested compounds. After 60 min under r.t. condition, the concentration of NO2^− was tested using Griess assay.
6l (0.01 μM, 0.1 μM, 1 μM, and 10 μM) or 5n (0.01 μM, 0.1 μM, 1 μM, and 10 μM) was added to a concentration of 0.5 mM SNP solution. […] Data were shown as mean ± SD. *** p < 0.001 compared with control group.

MDA-MB-231 cells = assay: MTT cytotoxicity in MDA-MB-231 cells; format: cell-based; settings: Homo sapiens
Procedure: as §1, §2, §3, §4, §5

HCT-116 cells = assay: MTT cytotoxicity in HCT-116 cells; format: cell-based; settings: Homo sapiens
Procedure: as §1, §2, §3, §4, §5

[2] = tested on: NO release of LPS-induced microglial N9 cells; assay: Inhibition of NO release in LPS-induced N9 cells (Griess); format: cell-based, murine; settings: Mus musculus, 1 μg/mL LPS for 48 h, NO level in medium
Procedure: (§6) The anti-neuroinflammatory activity of DCH was evaluated and then the representative compounds were selected for the further study. […] In addition, in order to exclude the death influence, MTT-IC20 of all the compounds were measured. […] The exact reason was still unclear, but we supposed that it might be related to the homeostasis of cells. The tumor cells actually were always in hypoxia condition, in which DCH could promote the cytotoxic activity against tumor cells. In brief, DCH could reduce the release of NO caused by LPS-induced microglial cells.
(§7) N9 cells, which were in the logarithmic phase, were incubated for 24 h by adherent culture. Subsequently, the medium was changed to new one without serum. The cells were treated with different concentration of tested compounds. After specific time in the LPS condition, the supernatants were collected and analyzed.
The nitrite levels in medium were determined by Griess reaction. The absorbance was measured at 540 nm using a microplate reader.

[3] = MTT cytotoxicity in N9 cells; format: cell-based, murine; settings: mouse, N9 microglial cells, cytotoxic activity
Procedure: as §6, §4, §7

[4] = tested on: IL-6 release of LPS-induced N9 cells; assay: IL-6 release of LPS-induced N9 cells (cytokine kit); format: cell-based, murine; settings: compound 1 μM, LPS 1 μg/mL, 48 h; for inhibition at 1 µM: Mus musculus
Procedure: as §7
(§8) The secreted level of TNF-α and IL-6 was measured using mouse Th1/Th2/Th17 Cytokine Kit, purchased from BD Pharningen. The data was analyzed by FCAP Array v3.0. IL-2, IL-4, IL-10, IL-17A, and IFN-γ were not detected in the experiment.

[5] = tested on: TNF-α release of LPS-induced N9 cells; assay: TNF-α release of LPS-induced N9 cells (cytokine kit); format: cell-based, murine; settings: compound 1 μM, LPS 1 μg/mL, 48 h; for inhibition at 1 µM: Mus musculus
Procedure: as §7, §8

[6] = A549, hypoxia 24 h then normoxia 72 h, read-out: IC50 A549 Hypoxia
[7] = A549, normoxia 96 h, read-out: IC50 A549 Normoxia
[8] = HT-29, hypoxia 24 h then normoxia 72 h, read-out: IC50 HT-29 Hypoxia
[9] = HT-29, normoxia 96 h, read-out: IC50 HT-29 Normoxia
[10] = MDA-MB-231, hypoxia 24 h then normoxia 72 h, read-out: IC50 MDA-MB-231 Hypoxia
[11] = MDA-MB-231, normoxia 96 h, read-out: IC50 MDA-MB-231 Normoxia
[12] = HCT-116, hypoxia 24 h then normoxia 72 h, read-out: IC50 HCT-116 Hypoxia
[13] = HCT-116, normoxia 96 h, read-out: IC50 HCT-116 Normoxia

SMILES | melting point [°C] | IC50 [2] [µM] | IC50 (A549 cells; [6]) [µM] | IC50 (A549 cells; [7]) [µM] | IC50 (HT-29 cells; [8]) [µM] | IC50 (HT-29 cells; [9]) [µM] | NO radical scavenging activity [1] | IC50 (MDA-MB-231 cells; [10]) [µM] | IC50 (MDA-MB-231 cells; [11]) [µM] | IC50 (HCT-116 cells; [12]) [µM] | IC50 (HCT-116 cells; [13]) [µM] | IC20 [3] [µM] | inhibition at 1 µM [4] [%] | IL-6 [4] [pg/mL] | inhibition at 1 µM [5] [%] | TNF-α [5] [pg/mL]
C[C@H]1[C@@H](OCCc2cn(Cc3cc4cc(Br)ccc4oc3=O)nn2)O[C@@H]2O[C@@]3(C)CC[C@H]4[C@H](C)CC[C@@H]1[C@@]24OO3 [2b, 6-bromo-3-((4-(2-((10S)-dihydroartemisininoxy)ethyl)-1H-1,2,3-triazol-1-yl)-methyl)-2H-1-chromen-2-one] | 138 to 140 | 0.64 | 60.2 | > 100 | 12.1 | 9.75 | – | 36.9 | 37.7 | > 100 | 56 | > 10 | 30.9 | 797.52 ± 140.74 | 27.2 | 3285.99 ± 1062.40
C[C@H]1[C@@H](OCCc2cn(Cc3cc4cc(Cl)ccc4oc3=O)nn2)O[C@@H]2O[C@@]3(C)CC[C@H]4[C@H](C)CC[C@@H]1[C@@]24OO3 [2c, 6-chloro-3-((4-(2-((10S)-dihydroartemisininoxy)ethyl)-1H-1,2,3-triazol-1-yl)-methyl)-2H-1-chromen-2-one] | 138 to 140 | 2.66 | 66.9 | 87.2 | 19.6 | 17.5 | – | 32.5 | 44 | 64.4 | 49.5 | > 10 | 26.4 | 850.24 ± 112.47 | 32.1 | 3077.03 ± 375.48
C[C@H]1[C@@H](OCc2cn(Cc3cc4ccccc4oc3=O)nn2)O[C@@H]2O[C@@]3(C)CC[C@H]4[C@H](C)CC[C@@H]1[C@@]24OO3 [1a, 3-((4-((10S)-dihydroartemisininoxy)methyl-1H-1,2,3-triazol-1-yl)-methyl)-2H-1-chromen-2-one] | 73 to 75 | 1.46 | 53.9 | 83.5 | 14.3 | 18.4 | – | 30.5 | 65 | 49.8 | 48.9 | > 10 | – | – | – | –
C[C@H]1[C@@H](OCc2cn(Cc3cc4cc(Br)cc(Br)c4oc3=O)nn2)O[C@@H]2O[C@@]3(C)CC[C@H]4[C@H](C)CC[C@@H]1[C@@]24OO3 [1e, 6,8-dibromo-3-((4-((10S)-dihydroartemisininoxy)methyl-1H-1,2,3-triazol-1-yl)-methyl)-2H-1-chromen-2-one] | 103 to 105 | 0.48 | 59.8 | > 100 | 26.9 | 15.3 | – | 45.5 | 77.9 | > 100 | 54.5 | > 10 | – | – | – | –

Second part, led by results:

melting point [°C] | IC50 [2] [µM] | SMILES | IC50 (A549 cells; [6]) [µM] | IC50 (A549 cells; [7]) [µM] | IC50 (HT-29 cells; [8]) [µM] | IC50 (HT-29 cells; [9]) [µM] | NO radical scavenging activity [1] | IC50 (MDA-MB-231 cells; [10]) [µM] | IC50 (MDA-MB-231 cells; [11]) [µM] | IC50 (HCT-116 cells; [12]) [µM] | IC50 (HCT-116 cells; [13]) [µM] | IC20 [3] [µM] | inhibition at 1 µM [4] [%] | IL-6 [4] [pg/mL] | inhibition at 1 µM [5] [%] | TNF-α [5] [pg/mL]
86 to 88 | 0.52 | Cc1cc(C)c2c(OCc3cn(CCCO[C@H]4O[C@@H]5O[C@@]6(C)CC[C@H]7[C@H](C)CC[C@@H]([C@H]4C)[C@@]57OO6)nn3)cc(=O)oc2c1 [6l] | 9.78 | 6.88 | 3.4 | 8.41 | had NO radical scavenging activity | 6.85 | 1.17 | 27.9 | 26.9 | > 10 | – | – | – | –
80 to 82 | 1.42 | Cc1ccc2oc(=O)cc(OCc3cn(CCCO[C@H]4O[C@@H]5O[C@@]6(C)CC[C@H]7[C@H](C)CC[C@@H]([C@H]4C)[C@@]57OO6)nn3)c2c1 [6p] | 18.8 | 18.9 | 12.5 | 7.49 | – | 10.3 | 22.1 | 38.1 | 35.3 | > 10 | 35.2 | 747.80 ± 125.56 | 23.4 | 3451.29 ± 646.50
90 to 92 | 5.8 | Cc1cc(C)c2oc(=O)cc(OCc3cn(CCCO[C@H]4O[C@@H]5O[C@@]6(C)CC[C@H]7[C@H](C)CC[C@@H]([C@H]4C)[C@@]57OO6)nn3)c2c1 [6m] | 20.1 | 27.9 | 5.9 | 22.4 | – | 18.7 | 24.6 | 93.5 | 42.1 | > 10 | – | – | – | –
84 to 86 | 0.57 | Cc1cccc2c(OCc3cn(CCO[C@H]4O[C@@H]5O[C@@]6(C)CC[C@H]7[C@H](C)CC[C@@H]([C@H]4C)[C@@]57OO6)nn3)cc(=O)oc12 [5o] | 45.1 | 50.4 | 21.2 | 16.1 | – | 16.5 | 37.4 | 38.5 | 29.7 | > 10 | – | – | – | –
